The values that follow come from patent US10919885B2, “Compounds and uses thereof” (Yumanity Therapeutics, Inc., priority 2018, dated 2021).

Bounds are passed on as bounds.

Sequence of human SCD1 (O00767 whole entry): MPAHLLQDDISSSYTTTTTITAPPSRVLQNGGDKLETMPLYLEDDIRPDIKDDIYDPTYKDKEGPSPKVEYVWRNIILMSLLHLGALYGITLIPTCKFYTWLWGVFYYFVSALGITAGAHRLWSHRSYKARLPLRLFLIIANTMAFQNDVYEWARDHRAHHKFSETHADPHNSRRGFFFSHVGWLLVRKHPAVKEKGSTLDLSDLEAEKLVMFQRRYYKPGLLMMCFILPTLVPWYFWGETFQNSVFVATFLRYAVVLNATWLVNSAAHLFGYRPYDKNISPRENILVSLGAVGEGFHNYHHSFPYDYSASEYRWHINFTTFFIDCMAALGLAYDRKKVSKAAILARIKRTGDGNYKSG

The test concerns the target human SCD1 (Homo sapiens (Human), UniProt O00767). As to the kind of experiment: Yeast growth assay, strain expressing human SCD1 as the sole desaturase (reduced growth as surrogate for SCD inhibition). Format: cell-based. The settings on record: yeast with OLE1 deleted expressing human SCD1 from a plasmid; growth read as OD600 after 40 h at 30° C.; top drug concentration 33.3 μM. Here is the method: Strains expressing SCD1 or SCD5 as the sole desaturase, the human SCD1 and SCD5 genes were used to evaluate inhibition of SCD1/SCD5 using reduced growth as a surrogate for SCD inhibition. These yeast strains express human SCD1 or SCD5 from a plasmid harbored in a strain in which the yeast OLE1 gene is deleted.
All compound profiling experiments were performed using the same basic protocol. Yeast were cultured using standard techniques in complete synthetic media lacking uracil and containing yeast nitrogen base supplemented with 2% (w/v) glucose (SD-Ura) Starter cultures were inoculated in 3 mL SD-Ura media containing 0.01% tween and 0.2 mM palmitoleic and oleic acid. Cultures were incubated overnight in a 30° C. shaker incubator (225 rpm). Saturated morning cultures were centrifuged, washed in SD-Ura media lacking TWEEN-20 and fatty acids, and then diluted 1:20 in fresh SD-Ura media also lacking TWEEN-20 and fatty acids.
Compound administration was performed in two separate steps. First, 15 μL of SD-Ura was dispensed into clear 384-well assay plates using a MULTIDROP™ Combi reagent dispenser. […] The cultures described above were centrifuged and washed with media lacking TWEEN-20 or oleic and palmitoleic acids.
After yeast delivery, assay plates were incubated under humidified conditions at 30° C. for 40 h. Yeast growth was monitored by reading the OD600 of each well using a microplate reader (Perkin Elmer EnVision™).
As to `Cc1ncc(-c2cc(C(=O)Nc3cnn(Cc4ccccc4)c3)no2)o1` [Compound 164, N-(1-benzyl-1H-pyrazol-4-yl)-5-(2-methyloxazol-5-yl)isoxazole-3-carboxamide], the IC50 (commonly the concentration at which inhibition is half-maximal) is 11000 nM. This counts as double-digit micromolar.
As for `O=C(Nc1cnn(Cc2ccccc2)c1)c1cc(-c2nncs2)on1` [Compound 170, N-(1-benzyl-1H-pyrazol-4-yl)-5-(1,3,4-thiadiazol-2-yl)isoxazole-3-carboxamide], the figure is 131 nM.
`O=C(Nc1cnn(Cc2cnccc2C(F)(F)F)c1)c1cc(-c2cnco2)on1` [Compound 171, 5-(oxazol-5-yl)-N-(1-((4-(trifluoromethyl)pyridin-3-yl)methyl)-1H-pyrazol-4-yl)isoxazole-3-carboxamide]: half-maximal inhibition (IC50) was put at 19000 nM.
Take `O=C(Nc1cnn(Cc2ccccc2)c1)c1cc(N2CCCC2)on1` [Compound 178, N-(1-benzyl-1H-pyrazol-4-yl)-5-(pyrrolidin-1-yl)isoxazole-3-carboxamide]: it took 10 nM to reach half-maximal inhibition (IC50).
Then `O=C(Nc1cnn(Cc2ccccc2)c1)c1cc(Cl)on1` [Compound 180], with greater than 45000 nM.
As for `O=C(Nc1cnn(Cc2cnccc2C(F)(F)F)c1)c1cc(N2CCCCC2)on1` [Compound 182, 5-(piperidin-1-yl)-N-(1-((4-(trifluoromethyl)pyridin-3-yl)methyl)-1H-pyrazol-4-yl)isoxazole-3-carboxamide], the figure is greater than 45000 nM.
Then `CC(C)(C)OC(=O)N1CCN(c2cc(C(=O)Nc3cnn(Cc4ccccc4)c3)no2)CC1` [Compound 185, tert-butyl 4-(3-(1-benzyl-1H-pyrazol-4-ylcarbamoyl)isoxazol-5-yl)piperazine-1-carboxylate], with 12 nM; and `O=C(Nc1cnn(Cc2ccccc2)c1)c1cc(N2CC[C@@H](O)C2)on1` [Compound 186, (R)—N-(1-benzyl-1H-pyrazol-4-yl)-5-(3-hydroxypyrrolidin-1-yl)isoxazole-3-carboxamide], with 2000 nM.
`O=C(Nc1cnn(Cc2ccccc2)c1)c1cc(N2CC[C@H](O)C2)on1` [Compound 187] returned an IC50 of 15000 nM. Against the preceding compound, the IC50 is about 7.5-fold higher.
As for `CO[C@@H]1CCN(c2cc(C(=O)Nc3cnn(Cc4ccccc4)c3)no2)C1` [Compound 188, (R)—N-(1-benzyl-1H-pyrazol-4-yl)-5-(3-methoxypyrrolidin-1-yl)isoxazole-3-carboxamide], the IC50 worked out at 74 nM.
Then `CO[C@H]1CCN(c2cc(C(=O)Nc3cnn(Cc4ccccc4)c3)no2)C1` [Compound 189, (S)—N-(1-benzyl-1H-pyrazol-4-yl)-5-(3-methoxypyrrolidin-1-yl)isoxazole-3-carboxamide], with 65 nM; and `O=C(Nc1cnn(Cc2ccccc2)c1)c1cc(N2CCNCC2)on1` [Compound 190], with greater than 45000 nM.
Then `O=C(Nc1cnn(Cc2cccc(F)c2)c1)c1noc2c1CCCC2` [Compound 193, N-{1-[(3-fluorophenyl)methyl]-1H-pyrazol-4-yl}-4,5,6,7-tetrahydro-1,2-benzoxazole-3-carboxamide], with 10 nM; and `O=C(Nc1cnn(Cc2cnccc2C(F)(F)F)c1)c1noc2c1CCCC2` [Compound 194, N-(1-{[4-(trifluoromethyl)pyridin-3-yl]methyl}-1H-pyrazol-4-yl)-4,5,6,7-tetrahydro-1,2-benzoxazole-3-carboxamide], with 25000 nM; and `O=C(Nc1cnn(Cc2cnccc2C(F)(F)F)c1)c1cc(-c2ccccn2)on1` [Compound 197, 5-(pyridin-2-yl)-N-(1-{[4-(trifluoromethyl)pyridin-3-yl]methyl}-1H-pyrazol-4-yl)-1,2-oxazole-3-carboxamide], with greater than 45000 nM.
Then `O=C(Nc1cnn(Cc2cnccc2C(F)(F)F)c1)c1cc(-c2ccco2)on1` [Compound 198, 5-(furan-2-yl)-N-(1-{[4-(trifluoromethyl)pyridin-3-yl]methyl}-1H-pyrazol-4-yl)-1,2-oxazole-3-carboxamide], with greater than 45000 nM.
